From US8367830B2, “Methods for the identification of phosphatidylinositol kinase interacting molecules and for the purification of phosphatidylinositol kinase proteins” (Cellzome AG, priority 2009, dated 2013) come the findings set out here.

The structures appear in SMILES notation.

One assay concerns the target T1, BIKE (Homo sapiens, UniProt Q9NSY1).
T1 construct: endogenous in cells; host or cells: mix of Jurkat and Ramos cell lysates
The assay can be described thus: Kinobeads competition binding, immobilized CZC31207, Jurkat/Ramos lysate mix. The settings on record: 10 μM free compound; mix of Jurkat and Ramos cell lysates. Here is the method: (§1) To the first aliquot of cell lysate 10 μM of the free compound CZC31207 was added and allowed to bind to proteins in the lysate. Then the affinity matrix with the immobilized compound was added to capture proteins that were not interacting with the previously added free compound. Beads were separated from the lysate and bead bound proteins were eluted in SDS sample buffer and subsequently separated by SDS-Polyacrylamide gel electrophoresis (FIG. 5). Suitable gel bands were cut out and subjected to in-gel proteolytic digestion with trypsin. The second lysate aliquot was processed identically, however no free compound was added (DMSO solvent control). Peptides originating from samples 1 and 2 were labeled with iTRAQ reagents (iTRAQ 114 and iTRAQ 116) and the combined samples were analyzed with a nano-flow liquid chromatography system coupled online to a tandem mass spectrometer (LC-MS/MS) experiment followed by iTRAQ reporter ion quantification in the MS/MS spectra as described in Example 2.
(§2) Jurkat cells (ATCC number T1B-152) and Ramos cells (ATCC number CRL-1596) were either obtained from an external supplier (CIL SA, Mons, Belgium) or grown in one litre Spinner flasks (Integra Biosciences, #182101) in suspension in RPMI 1640 medium (Invitrogen, #21875-034) supplemented with 10% Fetal Bovine Serum (Invitrogen, #10270-106) at a density between 0.2×10^6 and 1.0×10^6 cells/ml. Cells were harvested by centrifugation, washed once with 1×PBS buffer (Invitrogen, #14190-094) and cell pellets were frozen in liquid nitrogen and subsequently stored at −80° C.
(§3) The identified kinases are shown in Table 5 including the percent competition values for the sample to which 10 μM free compound had been added. In total of 20 different kinases were identified and competed by different degrees.

For the next assay, the target named is T2, CDC2 (Homo sapiens, UniProt P06493).
T2 construct: endogenous in cells; host or cells: mixed lysate of Jurkat and Ramos cells
T2 sequence (P06493 whole entry): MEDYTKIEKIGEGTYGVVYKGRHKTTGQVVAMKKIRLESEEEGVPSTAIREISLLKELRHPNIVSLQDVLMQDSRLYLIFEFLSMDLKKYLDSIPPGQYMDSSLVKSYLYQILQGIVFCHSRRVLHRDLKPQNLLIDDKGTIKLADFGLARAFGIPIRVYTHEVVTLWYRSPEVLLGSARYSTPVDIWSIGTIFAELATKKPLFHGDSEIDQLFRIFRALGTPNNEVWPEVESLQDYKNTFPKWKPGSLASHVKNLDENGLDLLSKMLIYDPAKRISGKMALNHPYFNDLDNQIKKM
Described as above. The settings on record: 10 μM free compound; mix of Jurkat and Ramos cell lysates. As for the experimental part: as §1, §2, §3

The target of a further assay is T3, CDK6 (Homo sapiens, UniProt Q00534).
T3 construct: endogenous in cells; host or cells: mixed lysate of Jurkat and Ramos cells
T3 sequence (Q00534 whole entry): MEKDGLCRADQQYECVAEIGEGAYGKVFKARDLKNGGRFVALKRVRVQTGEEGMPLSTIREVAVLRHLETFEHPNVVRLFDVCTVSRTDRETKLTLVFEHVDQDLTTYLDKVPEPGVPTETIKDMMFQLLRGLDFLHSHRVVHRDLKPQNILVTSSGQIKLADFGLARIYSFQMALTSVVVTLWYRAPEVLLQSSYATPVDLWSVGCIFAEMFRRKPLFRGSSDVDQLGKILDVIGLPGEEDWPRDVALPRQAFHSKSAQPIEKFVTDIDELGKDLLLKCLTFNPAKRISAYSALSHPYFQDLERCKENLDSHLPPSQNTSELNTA
The description is as above. The conditions noted are these: 10 μM free compound; mix of Jurkat and Ramos cell lysates. As for the experimental part: as §1, §2, §3

In another assay the target is T4, CaMK2d (Homo sapiens, UniProt Q13557).
T4 construct: endogenous in cells; host or cells: mix of Jurkat and Ramos cell lysates
T4 sequence (Q13557 whole entry): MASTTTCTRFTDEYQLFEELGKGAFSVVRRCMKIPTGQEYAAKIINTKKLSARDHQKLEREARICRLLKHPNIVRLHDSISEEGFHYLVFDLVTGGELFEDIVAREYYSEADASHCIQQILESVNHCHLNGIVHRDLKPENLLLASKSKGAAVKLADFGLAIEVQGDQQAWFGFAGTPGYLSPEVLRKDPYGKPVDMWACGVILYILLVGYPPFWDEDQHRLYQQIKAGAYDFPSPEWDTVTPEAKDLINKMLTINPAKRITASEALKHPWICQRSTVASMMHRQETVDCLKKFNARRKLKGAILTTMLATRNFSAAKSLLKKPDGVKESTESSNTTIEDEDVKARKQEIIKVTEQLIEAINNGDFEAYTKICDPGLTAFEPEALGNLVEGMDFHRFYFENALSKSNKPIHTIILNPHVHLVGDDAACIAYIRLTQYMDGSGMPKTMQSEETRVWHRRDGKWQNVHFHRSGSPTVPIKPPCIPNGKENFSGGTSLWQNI
The assay is described as above. The conditions noted are these: 10 μM free compound; mix of Jurkat and Ramos cell lysates. Here is the method: as §1, §2, §3

The next assay deals with T5, MST1 (Homo sapiens, UniProt Q13043).
T5 construct: endogenous in cells; host or cells: mixed lysate of Jurkat and Ramos cells
T5 sequence (Q13043 whole entry): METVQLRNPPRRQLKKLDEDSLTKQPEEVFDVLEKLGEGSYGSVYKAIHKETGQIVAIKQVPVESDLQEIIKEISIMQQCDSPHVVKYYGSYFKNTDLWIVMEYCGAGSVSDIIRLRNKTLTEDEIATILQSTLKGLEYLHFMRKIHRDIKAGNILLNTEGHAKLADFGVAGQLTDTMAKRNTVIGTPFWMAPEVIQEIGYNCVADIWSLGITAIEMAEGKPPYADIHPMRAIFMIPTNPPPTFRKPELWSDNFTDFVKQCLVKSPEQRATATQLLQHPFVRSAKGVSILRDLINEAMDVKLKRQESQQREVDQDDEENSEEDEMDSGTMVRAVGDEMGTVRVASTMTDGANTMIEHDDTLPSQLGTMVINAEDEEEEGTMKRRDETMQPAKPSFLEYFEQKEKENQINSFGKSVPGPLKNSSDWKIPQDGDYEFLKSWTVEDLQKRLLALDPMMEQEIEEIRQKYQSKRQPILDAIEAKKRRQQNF
The assay is described as above. The conditions noted are these: 10 μM free compound; mix of Jurkat and Ramos cell lysates. Here is the method: as §1, §2, §3

The next assay deals with T6, PIK3C3 (Homo sapiens, UniProt Q8NEB9).
T6 construct: endogenous in cells; host or cells: mixed lysate of Jurkat and Ramos cells
T6 sequence (Q8NEB9 whole entry): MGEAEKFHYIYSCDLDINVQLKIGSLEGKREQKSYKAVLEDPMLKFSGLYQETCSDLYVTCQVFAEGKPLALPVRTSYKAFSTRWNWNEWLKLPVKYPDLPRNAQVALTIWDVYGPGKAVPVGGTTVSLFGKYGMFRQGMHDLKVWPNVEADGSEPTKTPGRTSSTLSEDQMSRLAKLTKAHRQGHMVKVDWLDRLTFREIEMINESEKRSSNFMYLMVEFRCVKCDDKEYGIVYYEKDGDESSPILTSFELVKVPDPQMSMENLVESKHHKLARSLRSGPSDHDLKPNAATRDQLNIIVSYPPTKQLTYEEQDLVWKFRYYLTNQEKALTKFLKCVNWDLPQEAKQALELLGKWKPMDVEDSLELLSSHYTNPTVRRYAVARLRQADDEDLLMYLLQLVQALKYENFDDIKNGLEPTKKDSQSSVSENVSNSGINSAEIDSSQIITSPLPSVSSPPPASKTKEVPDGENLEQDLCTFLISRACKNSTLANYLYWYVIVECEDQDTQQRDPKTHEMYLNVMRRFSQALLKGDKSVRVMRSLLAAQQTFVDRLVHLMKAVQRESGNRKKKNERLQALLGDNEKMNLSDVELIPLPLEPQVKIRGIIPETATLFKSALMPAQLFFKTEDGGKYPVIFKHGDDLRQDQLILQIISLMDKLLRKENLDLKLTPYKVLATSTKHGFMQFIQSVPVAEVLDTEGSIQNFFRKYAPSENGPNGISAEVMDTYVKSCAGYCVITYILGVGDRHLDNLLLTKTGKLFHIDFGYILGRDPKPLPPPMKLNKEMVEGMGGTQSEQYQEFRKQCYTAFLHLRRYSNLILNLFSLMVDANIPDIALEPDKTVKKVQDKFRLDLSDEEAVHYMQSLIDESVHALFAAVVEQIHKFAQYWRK
The description is as above. The settings on record: 10 μM free compound; mix of Jurkat and Ramos cell lysates. Here is the method: as §1, §2, §3

In the next assay the target is T7, PKD2 (Homo sapiens, UniProt Q9BZL6).
T7 construct: endogenous in cells; host or cells: mixed lysate of Jurkat and Ramos cells
T7 sequence (Q9BZL6 whole entry): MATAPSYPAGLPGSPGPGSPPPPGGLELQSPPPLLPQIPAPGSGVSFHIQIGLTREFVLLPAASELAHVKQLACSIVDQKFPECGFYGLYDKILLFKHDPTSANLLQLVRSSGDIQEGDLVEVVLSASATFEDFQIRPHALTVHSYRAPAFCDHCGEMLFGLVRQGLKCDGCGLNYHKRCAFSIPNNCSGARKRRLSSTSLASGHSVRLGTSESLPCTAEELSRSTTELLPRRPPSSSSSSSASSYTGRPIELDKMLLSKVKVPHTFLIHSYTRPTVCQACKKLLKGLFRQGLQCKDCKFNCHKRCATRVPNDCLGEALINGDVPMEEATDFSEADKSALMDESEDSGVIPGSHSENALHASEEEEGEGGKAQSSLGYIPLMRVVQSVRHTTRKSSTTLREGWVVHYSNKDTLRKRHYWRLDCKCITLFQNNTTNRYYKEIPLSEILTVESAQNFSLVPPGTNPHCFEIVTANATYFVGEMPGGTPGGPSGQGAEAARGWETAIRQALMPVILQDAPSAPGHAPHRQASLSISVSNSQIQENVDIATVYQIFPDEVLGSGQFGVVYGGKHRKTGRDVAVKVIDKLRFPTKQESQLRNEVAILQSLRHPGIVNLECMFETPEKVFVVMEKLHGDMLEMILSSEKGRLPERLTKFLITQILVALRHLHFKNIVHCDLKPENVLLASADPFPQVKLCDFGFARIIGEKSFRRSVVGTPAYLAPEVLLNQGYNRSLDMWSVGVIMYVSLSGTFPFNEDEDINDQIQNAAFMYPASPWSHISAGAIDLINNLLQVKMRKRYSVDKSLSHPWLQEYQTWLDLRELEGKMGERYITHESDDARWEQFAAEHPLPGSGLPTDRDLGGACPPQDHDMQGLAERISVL
The description is as above. The conditions noted are these: 10 μM free compound; mix of Jurkat and Ramos cell lysates. Here is the method:
as §1, §2, §3

Another assay concerns the target PIK3Cb (Homo sapiens, UniProt P42338). Description: Kinobeads competition binding, immobilized CZC31207, HeLa/placenta lysate mix. More on the design: endogenous in cells; host or cells: mix of HeLa cell lysate and placenta lysate. The settings on record: 10 μM free compound; mixed HeLa and placenta cell lysates. Here is the method: (§4) To the first aliquot of cell lysate 10 μM of the free compound (CZC31207) was added and allowed to bind to proteins in the lysate. Then the affinity matrix with the immobilized compound (Example 1) was added to capture proteins that were not interacting with the previously added free compound. Beads were separated from the lysate and bead bound proteins were eluted in SDS sample buffer and subsequently separated by SDS-Polyacrylamide gel electrophoresis (FIG. 4). Suitable gel bands were cut out and subjected to in-gel proteolytic digestion with trypsin. The second lysate aliquot was processed identically, however no free compound was added (DMSO solvent control). Peptides originating from samples 1 and 2 were labeled with iTRAQ reagents (iTRAQ 115 and iTRAQ 117) and the combined samples were analyzed with a nano-flow liquid chromatography system coupled online to a tandem mass spectrometer (LC-MS/MS) experiment followed by iTRAQ reporter ion quantification in the MS/MS spectra (Ross et al., 2004. Mol. Cell. Proteomics 3(12):1154-1169). Further experimental protocols can be found in WO2006/134056 and a previous publication (Bantscheff et al., 2007. Nature Biotechnology 25, 1035-1044).
(§5) Cells were homogenized in a Potter S homogenizer in lysis buffer: 50 mM Tris-HCl, 0.8% NP40, 5% glycerol, 150 mM NaCl, 1.5 mM MgCl2, 25 mM NaF, 1 mM sodium vanadate, 1 mM DTT, pH 7.5. One complete EDTA-free tablet (protease inhibitor cocktail, Roche Diagnostics, 1 873 580) per 25 ml buffer was added. The material was dounced 20 times using a mechanized POTTER S, transferred to 50 ml falcon tubes, incubated for 30 minutes rotating at 4° C. and spun down for 10 minutes at 20,000×g at 4° C. (10,000 rpm in Sorvall SLA600, precooled). The supernatant was transferred to an ultracentrifuge (UZ)-polycarbonate tube (Beckmann, 355654) and spun for 1 hour at 145.000×g at 4° C. (40.000 rpm in Ti50.2, precooled). The supernatant was transferred again to a fresh 50 ml falcon tube, the protein concentration was determined by a Bradford assay (BioRad) and samples containing 50 mg of protein per aliquot were prepared. The samples were immediately used for experiments or frozen in liquid nitrogen and stored frozen at −80° C.
(§6) Sepharose-beads with the immobilized compound (100 μl beads per pull-down experiment) were equilibrated in lysis buffer and incubated with a cell lysate sample containing 50 mg of protein on an end-over-end shaker (Roto Shake Genie, Scientific Industries Inc.) for 2 hours at 4° C. Beads were collected, transferred to Mobicol-columns (MoBiTech 10055) and washed with 10 ml lysis buffer containing 0.4% NP40 detergent, followed by 5 ml lysis buffer containing 0.2% detergent. To elute bound proteins, 60 μl 2×SDS sample buffer was added to the column. […]

The target of the next assay is PIP5K2C (Homo sapiens, UniProt Q8TBX8). The description is as above. The conditions noted are these: 10 μM free compound; mixed HeLa and placenta cell lysates. More on the design: endogenous in cells; host or cells: mix of HeLa cell lysate and placenta lysate. As for the experimental part:
as §4, §5, §6

T1 sequence (Q9NSY1 whole entry): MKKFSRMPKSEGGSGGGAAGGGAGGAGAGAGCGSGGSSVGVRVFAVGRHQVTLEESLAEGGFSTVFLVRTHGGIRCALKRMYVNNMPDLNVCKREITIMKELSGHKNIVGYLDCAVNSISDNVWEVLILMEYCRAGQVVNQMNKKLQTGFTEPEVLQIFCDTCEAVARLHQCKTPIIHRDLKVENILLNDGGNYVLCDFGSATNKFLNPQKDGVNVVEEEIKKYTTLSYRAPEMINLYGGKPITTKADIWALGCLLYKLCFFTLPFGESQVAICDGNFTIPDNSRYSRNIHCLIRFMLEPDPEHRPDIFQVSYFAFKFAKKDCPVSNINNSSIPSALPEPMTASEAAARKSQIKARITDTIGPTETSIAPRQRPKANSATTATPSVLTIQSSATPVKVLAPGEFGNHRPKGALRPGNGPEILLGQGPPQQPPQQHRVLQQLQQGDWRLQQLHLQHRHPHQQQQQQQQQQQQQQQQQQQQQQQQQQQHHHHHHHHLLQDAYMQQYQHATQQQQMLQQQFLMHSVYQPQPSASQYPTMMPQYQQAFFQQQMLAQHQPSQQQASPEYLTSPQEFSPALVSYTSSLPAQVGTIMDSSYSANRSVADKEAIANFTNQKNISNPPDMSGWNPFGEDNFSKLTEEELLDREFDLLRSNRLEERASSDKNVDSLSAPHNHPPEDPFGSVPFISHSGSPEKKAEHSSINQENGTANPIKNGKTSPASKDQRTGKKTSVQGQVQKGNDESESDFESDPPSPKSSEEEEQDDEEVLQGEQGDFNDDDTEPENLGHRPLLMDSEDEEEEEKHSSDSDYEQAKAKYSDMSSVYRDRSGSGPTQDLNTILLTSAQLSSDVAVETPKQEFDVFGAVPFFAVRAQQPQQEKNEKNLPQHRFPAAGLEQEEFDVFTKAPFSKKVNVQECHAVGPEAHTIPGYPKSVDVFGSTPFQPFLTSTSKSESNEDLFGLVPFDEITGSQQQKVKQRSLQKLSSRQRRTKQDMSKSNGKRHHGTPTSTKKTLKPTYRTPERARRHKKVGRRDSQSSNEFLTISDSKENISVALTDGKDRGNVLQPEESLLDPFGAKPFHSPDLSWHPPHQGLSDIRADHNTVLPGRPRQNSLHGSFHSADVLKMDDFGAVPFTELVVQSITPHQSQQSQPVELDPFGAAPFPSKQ
Sequence of PIP5K2C (Q8TBX8 whole entry): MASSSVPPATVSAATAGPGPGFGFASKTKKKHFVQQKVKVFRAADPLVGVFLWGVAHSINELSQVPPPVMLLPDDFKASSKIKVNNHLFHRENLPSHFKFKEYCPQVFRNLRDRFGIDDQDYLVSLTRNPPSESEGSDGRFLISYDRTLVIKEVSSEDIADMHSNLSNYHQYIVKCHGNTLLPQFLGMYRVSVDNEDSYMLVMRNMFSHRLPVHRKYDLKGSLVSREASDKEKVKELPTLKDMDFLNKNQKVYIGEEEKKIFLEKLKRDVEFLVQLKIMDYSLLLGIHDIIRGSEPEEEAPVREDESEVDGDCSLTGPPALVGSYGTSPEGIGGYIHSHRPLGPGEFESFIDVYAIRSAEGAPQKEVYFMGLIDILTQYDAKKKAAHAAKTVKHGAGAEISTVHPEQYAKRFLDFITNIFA

`CC(C)NS(=O)(=O)c1cncc(-c2ccc3nc(NC(=O)NCCN)nn3c2)c1` [CZC31207, 5-(2-(3-(2-aminoethyl)ureido)-[1,2,4]triazolo[1,5-a]pyridin-6-yl)-N-isopropylpyridine-3-sulfonamide]: at BIKE, the “Competition % BIKE” value is 26.1%. For the same compound, at CDC2, the “Competition % CDC2” value was determined as 34.1%. Moreover, the “Competition % CDK6” value at CDK6 is given as −1.6%. For the same compound, the “Competition % CaMK2d” value at CaMK2d was −1.3%. For the same compound, the “Competition % MST1” value on MST1 is recorded as 24.5%. For the same compound, the “Competition % PIK3C3” value at PIK3C3 is on record as 52.4%. At PKD2, the “Competition % PKD2” value came out at 37.9%. Also, the “Competition % PIK3Cb” value on PIK3Cb was determined as 85.6%. Further, at PIP5K2C, the “Competition % PIP5K2C” value is 78.3%.
